From ChEMBL document CHEMBL1201862, “PubChem BioAssay data set” (2004)
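Five concentrations, 48 hours, 96-well plates. The concentration for 50% growth inhibition is given as GI50.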 Active and inactive are the calls of the source. Cut-off read from the data, not from the text of the source: active = GI50 up to about 1.1 µM and inactive = higher.

What was measured:
Experiment in all cases: DTP human tumour cell line panel, 48 h
HT-29 = system: HT-29
SNB-75 = system: SNB-75
HL-60 = system: HL-60
Malme-3M = system: Malme-3M
RPMI-8226 = system: RPMI-8226
UO-31 = system: UO-31
SW-620 = system: SW-620
SK-MEL-5 = system: SK-MEL-5
ACHN = system: ACHN
NCI-H522 = system: NCI-H522
SR = system: SR
SN12C = system: SN12C
DU-145 = system: DU-145
A498 = system: A498
M14 = system: M14
HCT-15 = system: HCT-15
HCC 2998 = system: HCC 2998
UACC-62 = system: UACC-62
NCI-H23 = system: NCI-H23
NCI/ADR-RES = system: NCI/ADR-RES
TK-10 = system: TK-10
CAKI-1 = system: CAKI-1
SF-268 = system: SF-268
MOLT-4 = system: MOLT-4
CCRF-CEM = system: CCRF-CEM
MCF7 = system: MCF7
OVCAR-4 = system: OVCAR-4
MDA-MB-435 = system: MDA-MB-435
PC-3 = system: PC-3
BT-549 = system: BT-549
SF-539 = system: SF-539
OVCAR-5 = system: OVCAR-5
786-0 = system: 786-0
SK-MEL-2 = system: SK-MEL-2
A549 = system: A549
EKVX = system: EKVX
KM12 = system: KM12
SF-295 = system: SF-295
HOP-92 = system: HOP-92
SNB-19 = system: SNB-19
SK-OV-3 = system: SK-OV-3
LOX IMVI = system: LOX IMVI
HOP-62 = system: HOP-62
OVCAR-8 = system: OVCAR-8
NCI-H460 = system: NCI-H460
Hs-578T = system: Hs-578T
SK-MEL-28 = system: SK-MEL-28
MDA-MB-231 = system: MDA-MB-231
U-251 = system: U-251
COLO 205 = system: COLO 205
T47D = system: T47D
RXF 393 = system: RXF 393
IGROV-1 = system: IGROV-1
MDA-N = system: MDA-N
K562 = system: K562
NCI-H226 = system: NCI-H226
UACC-257 = system: UACC-257
HCT-116 = system: HCT-116

## COC(=O)C(CCSC)NC(=O)CSc1nnc(COc2ccc(Cl)cc2)n1-c1ccccc1 (stereo not drawn)
HT-29
  GI50: 18.3 µM (inactive)
SNB-75
  GI50: 16.7 µM (inactive)
HL-60
  GI50: 18.3 µM (inactive)
Malme-3M
  GI50: 21.3 µM (inactive)
RPMI-8226
  GI50: 0.883 µM (active)
UO-31
  GI50: 3.94 µM (inactive)
SW-620
  GI50: 21.7 µM (inactive)
SK-MEL-5
  GI50: 18.5 µM (inactive)
ACHN
  GI50: 18.1 µM (inactive)
NCI-H522
  GI50: 3.77 µM (inactive)
SR
  GI50: 8.53 µM (inactive)
SN12C
  GI50: 17.8 µM (inactive)
DU-145
  GI50: 18.2 µM (inactive)
A498
  GI50: 21.3 µM (inactive)
M14
  GI50: 18.7 µM (inactive)
HCT-15
  GI50: 18.6 µM
HCC 2998
  GI50: 7.52 µM (inactive)
UACC-62
  GI50: 18.2 µM (inactive)
NCI-H23
  GI50: 17.8 µM (inactive)
NCI/ADR-RES
  GI50: 17.6 µM (inactive)
TK-10
  GI50: 19.1 µM (inactive)
CAKI-1
  GI50: 16.7 µM (inactive)
SF-268
  GI50: 17.1 µM (inactive)
MOLT-4
  GI50: 13.9 µM (inactive)
CCRF-CEM
  GI50: 23.7 µM (inactive)
MCF7
  GI50: 21.1 µM (inactive)
OVCAR-4
  GI50: 16.1 µM (inactive)
MDA-MB-435
  GI50: 18.4 µM (inactive)
PC-3
  GI50: 18.9 µM (inactive)
BT-549
  GI50: 19.6 µM (inactive)
SF-539
  GI50: 18.4 µM (inactive)
OVCAR-5
  GI50: 19.5 µM (inactive)
786-0
  GI50: 16.3 µM (inactive)
SK-MEL-2
  GI50: 16 µM (inactive)
A549
  GI50: 26.8 µM (inactive)
EKVX
  GI50: 27.6 µM (inactive)
KM12
  GI50: 18.2 µM (inactive)
SF-295
  GI50: 17 µM (inactive)
HOP-92
  GI50: 18.2 µM (inactive)
SNB-19
  GI50: 23.5 µM (inactive)
SK-OV-3
  GI50: 14.5 µM (inactive)
LOX IMVI
  GI50: 13.8 µM (inactive)
HOP-62
  GI50: 3.08 µM (inactive)
OVCAR-8
  GI50: 18.6 µM (inactive)
NCI-H460
  GI50: 14.4 µM (inactive)
Hs-578T
  GI50: 21.4 µM (inactive)
SK-MEL-28
  GI50: 17.4 µM (inactive)
MDA-MB-231
  GI50: 17 µM (inactive)
U-251
  GI50: 17.1 µM (inactive)
COLO 205
  GI50: 18.3 µM (inactive)
T47D
  GI50: 27.5 µM (inactive)
RXF 393
  GI50: 19.1 µM (inactive)
IGROV-1
  GI50: 16 µM (inactive)
MDA-N
  GI50: 18.9 µM (inactive)
K562
  GI50: 24.5 µM (inactive)
NCI-H226
  GI50: 21.4 µM (inactive)
UACC-257
  GI50: 16.9 µM (inactive)
HCT-116
  GI50: 16.6 µM (inactive)
